Results as given in US9238688B2 (priority 2010, dated 2016).

What was measured:
[1] = test system: hyaluronic acid synthase gene HAS2; experiment: Expression of hyaluronic acid synthase gene HAS2, keratinocyte monolayer culture, real-time PCR; type: cell-based; conditions: human epidermal keratinocytes; final retinol concentration 10^−6 M or 10^−5 M; 6, 24 or 48 hours; Experimental Example 1
Procedure: (§1) Human epidermal keratinocytes (Cell Application Inc.) were seeded in a 24-well plate containing a human epidermal keratinocytes growth medium (Cell Application Inc.) so that the number of cells contained in a well was 1.5×10^5, and were cultured under the condition of 5% CO2-95% air and at 37° C. for about two days until the cells reached confluence.
(§2) Meanwhile, each tested substance was dissolved in a small amount of dimethylformamide and added to the medium, and the concentration of dimethylformamide in all experiments was adjusted to 0.1 wt %.
(§3) After culturing for a given time period, the keratinocytes were recovered and RNA was extracted therefrom. Then, the gene expression of hyaluronic acid synthases HAS2 and HAS3 were assessed by real-time PCR using the following primer pairs (Takara Bio Inc.): […]

[2] = test system: hyaluronic acid synthase gene HAS3; experiment: Expression of hyaluronic acid synthase gene HAS3, keratinocyte monolayer culture, real-time PCR; type: cell-based; conditions: human epidermal keratinocytes; final retinol concentration 10^−6 M or 10^−5 M; 6, 24 or 48 hours; Experimental Example 1
Procedure: as §1, §2, §3

Compound	level of HAS2 gene expression (ratio to PPIA, control after 6 hours = 1) [1]	level of HAS3 gene expression (ratio to PPIA, control after 6 hours = 1) [2]
CC(=O)OC/C=C(C)/C=C/C=C(C)/C=C/C1=C(C)CCCC1(C)C [acetic acid retinol ester]	lower levels of gene expression as compared to the retinol-modified collagen	lower levels of gene expression as compared to the retinol-modified collagen
CCCCCCCCCCCCCCCC(=O)OC/C=C(C)/C=C/C=C(C)/C=C/C1=C(C)CCCC1(C)C [palmitic acid retinol ester]	lower levels of gene expression as compared to the retinol-modified collagen	lower levels of gene expression as compared to the retinol-modified collagen
